This note sets out measurements from ChEMBL document CHEMBL5154824, “Design and synthesis of multifunctional microtubule targeting agents endowed with dual pro-apoptotic and anti-autophagic efficacy” (Eur J Med Chem, 2022).

A short description of assay [1]: Induction of Pro-apoptosis in human HL-60 cells assessed as increase in apoptotic cells at 50 uM after 48 hrs by TMRM dye based flow cytometric analysis. It is filed as functional. A general note: A flow cytometer gives signals particle by particle.
Assay [2] is described as follows: Induction of Pro-apoptosis in human HL-60 cells assessed as increase in apoptotic cells at 20 uM after 48 hrs by TMRM dye based flow cytometric analysis. Type of assay: functional.

Each structure is given as a SMILES string. A value given as a limit tells only on which side of the number the result lay.

As for `CC(=O)OC1=C(c2cccc3ccccc23)Oc2ccc(N3CCN(C(C)=O)CC3)cc2-n2cccc21`, the Activity entry in assay [1] is on record as “>=70%”; in assay [2] it was less than 30%.
